# In patent US11319551B2, “Methods and compositions for PPO herbicide tolerance in plants” (Monsanto Technology LLC, priority 2015, dated 2022):
# Experiments:
# [1] = target: soybean PPO; assay: PPO enzyme assay, plant plastid extract; format: biochemical, Glycine max; conditions: 3 μM protogen, 30° C., read-out: S-3100 IC50
# Protocol: (§1) Plant plastid extract was produced used etioplasts and chloroplasts that were prepared from etiolated cotyledons (soybean, Glycine max), etiolated leaves/coleoptiles (corn, Zea mays) and unfolded apical leaves (A. tuberculatus) generally by the procedure described by Grossmann (2010). Soybean (A3555) and corn (LH244) seeds were placed between two sheets of moist germination paper (Anchor Paper Company, Saint Paul, Minn.) in a beaker of water in continuous darkness for eight to ten days. A. tuberculatus plants were grown for 30 days in the greenhouse. Tissue was collected, placed between moist sheets of paper towels and ground to fine powder with a mortar and pestle in liquid nitrogen. Homogenization buffer (50 mM Tris-HCl, pH 7.4, 500 mM sucrose, 1 mM EDTA, 1 mM magnesium chloride, and 2 g/liter bovine serum albumin) was added to the frozen powder at 4:1 (ml homogenization buffer to g fresh weight tissue), mixed vigorously and filtered through four layers of pre-moistened Miracloth. The filtrate was centrifuged at 9299 g for five minutes. The pellet was resuspended in homogenization buffer and centrifuged at 150 g for two minutes. The supernatant solution was centrifuged at 4000 g for fifteen minutes. All centrifugation steps were carried out a 4° C. […]
# [2] = target: corn PPO; assay: PPO enzyme assay, plant plastid extract; format: biochemical, Zea mays; conditions: 3 μM protogen, 30° C., read-out: S-3100 IC50
# Protocol: as §1
# [3] = target: E. coli HemG (Escherichia coli, UniProt P0ACB4); assay: PPO enzyme assay, bacterial extract
# Protocol: (§2) This assay used recombinant HemY PPO proteins with plant plastid extract and PPO substrate to identify protoporphyrinogen oxidases that had activity in the presence of a PPO herbicide.
# (§3) Recombinant PPO enzymes were expressed in E. coli HemG knockout cell line and extracted for the enzyme assay. Bacterial cells from an overnight culture were used to inoculate 20 ml of fresh media. These cultures were allowed to grow for approximately 48 hrs at 20° C. to a dense culture. Bacterial cells were collected by centrifugation and the cell pellets stored at −80° C. until enzyme assays were performed. Frozen bacterial pellets were resuspended in extraction buffer (50 mM Tris-HCl, pH 7.6, 1 mM EDTA & 1 mM MgCl2) and sonicated (Sonics VibraCell™) for 30 seconds in an ice bath with a one-minute rest period between cycles. For E. coli transformed with a construct encoding E. coli HemG (SEQ ID NO: 76) the broken cells were centrifuged at 200 g for 2 minutes at 4° C. and the supernatant solution was used for PPO enzyme assays after dilution with extraction buffer. […]
# (§4) A PPO enzyme assay was conducted to measure PPO activity using the plant plastid extract and bacterial extract preparations with the PPO substrate. PPO activity was measured generally as described by Grossmann (2010).
# [4] = system: R2N30; assay: PPO enzyme assay, bacterial extract
# Protocol: as §2, §3, §4
# [5] = system: R2N40; assay: PPO enzyme assay, bacterial extract
# Protocol: as §2, §3, §4
# [6] = read-out: S-3100 IC50, bacterial extract, 3 μM protogen, 37° C.
# Sequence of E. coli HemG (P0ACB4 whole entry): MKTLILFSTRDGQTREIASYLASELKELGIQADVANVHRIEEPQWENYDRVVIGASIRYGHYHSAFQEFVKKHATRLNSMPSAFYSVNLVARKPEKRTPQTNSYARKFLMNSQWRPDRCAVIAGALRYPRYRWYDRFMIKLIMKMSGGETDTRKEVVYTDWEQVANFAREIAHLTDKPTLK
smiles,measurement,setting,value
CCOC(=O)COc1ncccc1Oc1cc(-n2c(=O)cc(C(F)(F)F)n(C)c2=O)c(F)cc1Cl [S-3100],IC50,[1],4 nM
same,IC50,[2],3 nM
same,IC50,[3],> 100000 nM
same,less sensitive to the herbicide than the plant PPO enzymes,[4]; R2N30 versus plant PPO enzymes,10 fold
same,IC50,[4]; [6],20 nM
same,less sensitive to the herbicide than the plant PPO enzymes,[5]; R2N40 versus plant PPO enzymes,10 fold
same,IC50,[5]; [6],40 nM
